Measurements from paper PMC10797614, “MYC-Targeting Inhibitors Generated from a Stereodiversified Bicyclic Peptide Library” (Journal of the American Chemical Society, 2024).
*1 amine or outer side, *2 acyl side, *3 side chain or, on linkers, in order; H or OH if unused. Where a SMILES comes first, the peptide text is derived from it. Bridges are numbered along the chain shown (N, C = ends). X1 = O=C([C@@H]1C[C@H](C=CCO[*:3])C[C@@H]1C=CCO[*:1])[*:2]

Assays:
[1] = test system: MYC transcription activity (HALLAMRK MYC TARGETS V1 gene set); experiment: RNA-seq, differential expression (DESeq) and GSEA in U87 cells; format: cell-based, human; conditions: treated vs vehicle, p-value < 0.001, FDR 0.005
From the text: To test whether NT-B2R directly affected MYC activity, we performed RNA-seq on the U87 cells and evaluated the differentially expressed genes using DESeq. […] A caveat here is that a global shift of transcription activities will not be observable by this analysis, due to the embedded normalization procedure.[38] Nevertheless, gene set enrichment analysis (GSEA) results highlighted that MYC target gene sets were enriched with high statistical significance and low false discovery probabilities, supporting that MYC was NT-B2R’s main target (Figure 4G).
U87 cells were seeded in six 100x20 mm cell culture dishes at 1000 k/dish and incubated for 24h in full DMEM medium containing 10% FBS and 1% PS. […]
Total RNA of the harvested cells was extracted and purified using the RNeasy Micro Kit (QIAGEN). Following the extraction, RNA integrity and quantitation were assessed using the RNA Nano 6000 Assay Kit on the Bioanalyzer 2100 system (Agilent Technologies). […] The obtained six library samples were pooled together and sequenced on a NovaSeq 6000 (Illumina) to reach approximately 30M 150bp pair-end reads per sample.
The obtained sequencing data was preprocessed using TrimGalore, aligned using STAR, and counted using HTSeq. […]

[2] = free peptide; liposomes therefore used as delivery vehicles
MYC = target: T1, MYC (Homo sapiens, UniProt P01106); experiment: Cellular thermal shift assay (CETSA) with U87 cell lysate; format: binding; conditions: U87 cell lysate 1.481 mg/mL, 195 μL lysate + 19.5 μL peptide (1 mM in PBS); 50 to 65 °C for 3 min; Western blot; versus control
T1 construct: made in house; host or cells: E. coli BL21(DE3)
T1 sequence (P01106 16-454): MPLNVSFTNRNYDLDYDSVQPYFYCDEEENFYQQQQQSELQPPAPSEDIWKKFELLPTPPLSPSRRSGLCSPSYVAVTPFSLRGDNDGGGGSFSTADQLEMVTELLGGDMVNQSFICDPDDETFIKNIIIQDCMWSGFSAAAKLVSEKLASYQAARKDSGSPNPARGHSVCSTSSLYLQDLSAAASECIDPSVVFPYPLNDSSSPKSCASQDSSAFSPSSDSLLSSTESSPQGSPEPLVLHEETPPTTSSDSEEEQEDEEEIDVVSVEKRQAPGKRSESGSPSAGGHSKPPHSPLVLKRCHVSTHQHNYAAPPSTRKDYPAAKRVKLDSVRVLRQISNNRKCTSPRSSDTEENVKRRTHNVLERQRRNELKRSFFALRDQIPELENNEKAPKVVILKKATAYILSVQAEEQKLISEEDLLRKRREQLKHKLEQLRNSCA
Method: To validate that NT-B2R could bind to MYC in complex biological environments, we performed cellular thermal shift assays using U87 cell lysates[34] (Figure 4A). U87 is a human glioblastoma cell line with known dependence on MYC activities.[35]−[37]
Liposome loading capacity quantification
200 μL of the liposome solution (4 mg/mL) was dried under vacuum and extracted with 50 μL of DMSO. The obtained solution was analyzed on a reverse-phase HPLC and the corresponding peptide peak was identified by mass spectrometry. The peptide concentration was then determined by comparing the peak area to that of a standard solution. The loading capacities were calculated accordingly.
Cells were seeded in a 96-well plate at 4 k/well and incubated overnight. Afterward, the cells were washed with complete media and treated with varying concentrations of peptide-loaded liposome or empty liposome. The final media volume was 200 μL in each well. […] The 96-well plate was shaken for 15 min on an orbital mixer in dark, and the fluorescence (540 nm excitation, 590 nm emission) intensities were read by a […]
U87 cells were detached by trypsin and resuspended in 5 mL of PBS(1x). […] The protein concentrations were determined by BCA assay.
To prepare the sample for the cellular thermal shift assay, the quantified cell lysate was adjusted to a final concentration of 1.481 mg/mL with lysis buffer. […]

Question: Which results are given for `CC(C)C[C@@H]1NC(=O)[C@H](CCCNC(=N)N)NC(=O)[C@@H]2CCCCNC(=O)[C@@H]3C[C@H](C=CCOC(=O)CC[C@@H](C(N)=O)NC1=O)C[C@@H]3C=CCOC(=O)CC[C@H](N)C(=O)N[C@@H](Cc1c[nH]c3ccccc13)C(=O)N1CCC[C@H]1C(=O)N[C@@H](Cc1c[nH]cn1)C(=O)N[C@@H](CCCNC(=N)N)C(=O)N2` [NT-B2R] (H-EWPHRKRLE-NH2; linker 1-6-9 via X1; N-terminus and C-terminus assumed)?
Answer: GSEA normalized enrichment score (NES), HALLAMRK MYC TARGETS V1 [1]: −5.955; cell permeability (in words) [2]: not cell-permeable; increase of MYC melting temperature, CETSA (MYC): ~2 °
